Patent USRE47302E1 (ONYX THERAPEUTICS INC., priority 2013, dated 2019)
≈ marks a conversion by molar mass, not a printed value.

Test: Solubility pH 7
Details: pH 7

Solubility pH 7 (μg/mL)	Structure (SMILES)
>10	COc1ccc(C[C@H](NC(=O)[C@H](C)NC(=O)CN2CCOCC2)C(=O)N[C@@H](C[C@H]2CCOC2)C(=O)[C@@]2(C)CO2)cc1 [Compound C-1025, (S)-3-(4-methoxyphenyl)-N-((S)-1-((R)-2-methyloxiran-2-yl)-1-oxo-3-((S)-tetrahydrofuran-3-yl)propan-2-yl)-2-((S)-2-(2-morpholinoacetamido)propanamido) propanamide]

Same assay, conditions: pH 7, aqueous buffer

Structure (SMILES)	solubility [µg/mL]
C[C@H](NC(=O)CN1CCOCC1)C(=O)N[C@@H](Cc1ccc2c(c1)CCC(=O)N2)C(=O)N[C@@H](CC1CCCC1)C(=O)[C@@]1(C)CO1 [Compound C-1086, (S)-N-((S)-3-cyclopentyl-1-((R)-2-methyloxiran-2-yl)-1-oxopropan-2-yl)-2-((S)-2-(2-morpholinoacetamido)propanamido)-3-(2-oxo-1,2,3,4-tetrahydroquinolin-6-yl)propanamide]	3860 (≈ 6.32 mM)
C[C@H](NC(=O)CN1CCOCC1)C(=O)N[C@@H](Cc1ccc2[nH]ccc2c1)C(=O)N[C@@H](CC1CCCC1)C(=O)[C@@]1(C)CO1 [Compound C-1123, (S)-N-((S)-3-cyclopentyl-1-((R)-2-methyloxiran-2-yl)-1-oxopropan-2-yl)-3-(1H-indol-5-yl)-2-((S)-2-(2-morpholinoacetamido)propanamido)propanamide]	1470 (≈ 2.52 mM)
COc1ccc(C[C@H](NC(=O)[C@@H](C)NC(=O)[C@@H]2CC[C@@H](O)C2)C(=O)N[C@@H](CC2CCCC2)C(=O)[C@@]2(C)CO2)cc1 [Compound C-1077, (1R,3R)-N-((R)-1-(((S)-1-(((S)-3-cyclopentyl-1-((R)-2-methyloxiran-2-yl)-1-oxopropan-2-yl)amino)-3-(4-methoxyphenyl)-1-oxopropan-2-yl)amino)-1-oxopropan-2-yl)-3-hydroxycyclopentanecarboxamide]	1540 (≈ 2.75 mM)
C[C@H](NC(=O)CN1CCOCC1)C(=O)NC(Cc1ccc2c(c1)COC(=O)N2)C(=O)N[C@@H](CC1CCCC1)C(=O)[C@@]1(C)CO1 (stereo partly drawn) [Compound C-1101, N-((S)-3-cyclopentyl-1-((R)-2-methyloxiran-2-yl)-1-oxopropan-2-yl)-2-((S)-2-(2-morpholinoacetamido)propanamido)-3-(2-oxo-2,4-dihydro-1H-benzo[d][1,3]oxazin-6-yl)propanamide]	4090 (≈ 6.67 mM)
C[C@H](NC(=O)CN1CCOCC1)C(=O)N[C@@H](Cc1ccc2[nH]cnc2c1)C(=O)N[C@@H](CC1CCCC1)C(=O)[C@@]1(C)CO1 [Compound C-1069, (S)-3-(1H-benzo[d]imidazol-5-yl)-N-((S)-3-cyclopentyl-1-((R)-2-methyloxiran-2-yl)-1-oxopropan-2-yl)-2-((S)-2-(2-morpholinoacetamido)propanamido)propanamide]	3540 (≈ 6.08 mM)
COc1ccc(C[C@H](NC(=O)[C@@H](C)NC(=O)[C@H]2CNC(=O)C2)C(=O)N[C@@H](CC2CCCC2)C(=O)[C@@]2(C)CO2)cc1 [Compound C-1067, (R)-N-((R)-1-(((S)-1-(((S)-3-cyclopentyl-1-((R)-2-methyloxiran-2-yl)-1-oxopropan-2-yl)amino)-3-(4-methoxyphenyl)-1-oxopropan-2-yl)amino)-1-oxopropan-2-yl)-5-oxopyrrolidine-3-carboxamide]	4590 (≈ 8.25 mM)
C[C@H](NC(=O)CN1CCOCC1)C(=O)N[C@@H](Cc1ccc2cc[nH]c2c1)C(=O)N[C@@H](CC1CCCC1)C(=O)[C@@]1(C)CO1 [Compound C-1124, (S)-N-((S)-3-cyclopentyl-1-((R)-2-methyloxiran-2-yl)-1-oxopropan-2-yl)-3-(1H-indol-6-yl)-2-((S)-2-(2-morpholinoacetamido)propanamido)propanamide]	56.5 (≈ 0.0971 mM)
COc1ccc(C[C@H](NC(=O)[C@@H](C)NC(=O)[C@]2(C)CC[C@H](O)CC2)C(=O)N[C@@H](CC2=CCCC2)C(=O)[C@@]2(C)CO2)cc1 [Compound C-1112, (1s,4S)-N-((R)-1-(((S)-1-(((S)-3-(cyclopent-1-en-1-yl)-1-((R)-2-methyloxiran-2-yl)-1-oxopropan-2-yl)amino)-3-(4-methoxyphenyl)-1-oxopropan-2-yl)amino)-1-oxopropan-2-yl)-4-hydroxy-1-methylcyclohexanecarboxamide]	1110 (≈ 1.91 mM)
C[C@H](NC(=O)CN1CCOCC1)C(=O)N[C@@H](Cc1ccn(C)c(=O)c1)C(=O)N[C@@H](CC1=CCCC1)C(=O)[C@@]1(C)CO1 [Compound C-1137, (S)-N-((S)-3-(cyclopent-1-en-1-yl)-1-((R)-2-methyloxiran-2-yl)-1-oxopropan-2-yl)-3-(1-methyl-2-oxo-1,2-dihydropyridin-4-yl)-2-((S)-2-(2-morpholinoacetamido)propanamido)propanamide]	> 10000
Cc1ccc(C[C@H](NC(=O)[C@H](C)NC(=O)CN2CCOCC2)C(=O)N[C@@H](CC2=CCCCC2)C(=O)[C@@]2(C)CO2)cc1O [Compound C-1130, (S)-N-((S)-3-(cyclohex-1-en-1-yl)-1-((R)-2-methyloxiran-2-yl)-1-oxopropan-2-yl)-3-(3-hydroxy-4-methylphenyl)-2-((S)-2-(2-morpholinoacetamido)propanamido)propanamide]	1140 (≈ 1.95 mM)
COc1ccc(C[C@H](NC(=O)[C@H](C)NC(=O)[C@@H]2CCCN2C)C(=O)N[C@@H](Cc2ccccc2)C(=O)[C@@]2(C)CO2)cc1 [Compound C-1165]	2150 (≈ 3.8 mM)

The remaining lines, values ahead:

solubility [µg/mL]	Structure (SMILES)
496 (≈ 0.801 mM)	COc1ccc(C[C@H](NC(=O)[C@H](C)NC(=O)CN2CCS(=O)(=O)CC2)C(=O)N[C@@H](CC2=CCCC2)C(=O)[C@@]2(C)CO2)cc1 [Compound C-1115, (S)-N-((S)-3-(cyclopent-1-en-1-yl)-1-((R)-2-methyloxiran-2-yl)-1-oxopropan-2-yl)-2-((S)-2-(2-(1,1-dioxidothiomorpholino)acetamido)propanamido)-3-(4-methoxyphenyl)propanamide]
3820 (≈ 6.67 mM)	COc1ccc(C[C@H](NC(=O)[C@H](C)NC(=O)CN2CCOCC2)C(=O)N[C@@H](CC(F)(F)F)C(=O)[C@@]2(C)CO2)cc1 [Compound C-1226]
> 10	COc1ccc(C[C@H](NC(=O)[C@H](C)NC(=O)CN2CCOCC2)C(=O)N[C@@H](CC2CNC(=O)C2)C(=O)[C@@]2(C)CO2)cc1 (stereo partly drawn) [Compound C-1035, (2S)-3-(4-methoxyphenyl)-N-((2S)-1-((R)-2-methyloxiran-2-yl)-1-oxo-3-(5-oxopyrrolidin-3-yl)propan-2-yl)-2-((S)-2-(2-morpholinoacetamido)propanamido)propanamide]
3190 (≈ 5.29 mM)	COc1ccc(C[C@H](NC(=O)[C@H](C)NC(=O)CN2CCOCC2)C(=O)N[C@@H](C[C@H]2CC[C@H](O)CC2)C(=O)[C@@]2(C)CO2)cc1 [Compound C-1002, (S)-N-((S)-3-((1r,4S)-4-hydroxycyclohexyl)-1-((R)-2-methyloxiran-2-yl)-1-oxopropan-2-yl)-3-(4-methoxyphenyl)-2-((S)-2-(2-morpholinoacetamido)propanamido)propanamide]
2340 (≈ 4 mM)	COc1ccc(C[C@H](NC(=O)[C@H](C)NC(=O)CN2CCOCC2)C(=O)N[C@@H](C[C@H]2[C@@H]3CCC[C@@H]32)C(=O)[C@@]2(C)CO2)cc1 [Compound C-1142, (S)-N-((S)-3-((1R,5S,6r)-bicyclo[3.1.0]hexan-6-yl)-1-((R)-2-methyloxiran-2-yl)-1-oxopropan-2-yl)-3-(4-methoxyphenyl)-2-((S)-2-(2-morpholinoacetamido)propanamido)propanamide]
6110 (≈ 10.3 mM)	COc1ccc(C[C@H](NC(=O)[C@H](C)NC(=O)CN2CCOCC2)C(=O)N[C@@H](CC2CC(F)(F)C2)C(=O)[C@@]2(C)CO2)cc1 [Compound C-1093, (S)-N-((S)-3-(3,3-difluorocyclobutyl)-1-((R)-2-methyloxiran-2-yl)-1-oxopropan-2-yl)-3-(4-methoxyphenyl)-2-((S)-2-(2-morpholinoacetamido)propanamido)propanamide]
682 (≈ 1.26 mM)	CC#CC[C@H](NC(=O)[C@H](Cc1ccc(OC)cc1)NC(=O)[C@H](C)NC(=O)CN1CCOCC1)C(=O)[C@@]1(C)CO1 [Compound C-1228]
1700 (≈ 2.98 mM)	Cc1cc(C[C@H](NC(=O)[C@H](C)NC(=O)CN2CCOCC2)C(=O)N[C@@H](CC2=CCCC2)C(=O)[C@@]2(C)CO2)ccc1O [Compound C-1131, (S)-N-((S)-3-(cyclopent-1-en-1-yl)-1-((R)-2-methyloxiran-2-yl)-1-oxopropan-2-yl)-3-(4-hydroxy-3-methylphenyl)-2-((S)-2-(2-morpholinoacetamido)propanamido)propanamide]
159 (≈ 0.254 mM)	COc1ccc(C[C@H](NC(=O)[C@@H](NC(=O)CN2CCOCC2)C(F)(F)F)C(=O)N[C@@H](CC2=CCCC2)C(=O)[C@@]2(C)CO2)cc1 [Compound C-1132, (R)-N-((S)-1-(((S)-3-(cyclopent-1-en-1-yl)-1-((R)-2-methyloxiran-2-yl)-1-oxopropan-2-yl)amino)-3-(4-methoxyphenyl)-1-oxopropan-2-yl)-3,3,3-trifluoro-2-(2-morpholinoacetamido)propanamide]
1670 (≈ 2.86 mM)	COc1ccc(C[C@H](NC(=O)[C@H](C)NC(=O)CN2CCOCC2)C(=O)N[C@@H](C[C@H]2C[C@@H]3C[C@@H]3C2)C(=O)[C@@]2(C)CO2)cc1 [Compound C-1094, (S)-N-((S)-3-((1R,3s,5S)-bicyclo[3.1.0]hexan-3-yl)-1-((R)-2-methyloxiran-2-yl)-1-oxopropan-2-yl)-3-(4-methoxyphenyl)-2-((S)-2-(2-morholinoacetamido)propanamido)propanamide]
3790 (≈ 6.78 mM)	C[C@H](NC(=O)CN1CCOCC1)C(=O)N[C@@H](Cc1ccc(O)cc1)C(=O)N[C@@H](CC1CCCC1)C(=O)[C@@]1(C)CO1 [Compound C-1113, (S)-N-((S)-3-cyclopentyl-1-((R)-2-methyloxiran-2-yl)-1-oxopropan-2-yl)-3-(4-hydroxyphenyl)-2-((S)-2-(2-morpholinoacetamido)propanamido)propanamide]
172 (≈ 0.289 mM)	C#CC[C@H](NC(=O)CN1CCOCC1)C(=O)N[C@@H](Cc1ccc(OC)cc1)C(=O)N[C@@H](CC1=CCCC1)C(=O)[C@@]1(C)CO1 [Compound C-1139, (S)-N-((S)-1-(((S)-3-(Cyclopent-1-en-1-yl)-1-((R)-2-methyloxiran-2-yl)-1-oxopropan-2-yl)amino)-3-(4-methoxyphenyl)-1-oxopropan-2-yl)-2-(2-morpholinoacetamido)pent-4-ynamide]
1890 (≈ 3.34 mM)	COc1ccc(C[C@H](NC(=O)C(C)NC(=O)CN2CCOCC2)C(=O)N[C@H](C(=O)[C@@]2(C)CO2)c2ccccc2)cc1 (stereo partly shown) [Compound C-1176]
